In brackets after ≈: the same amount, converted by molar mass. Where a SMILES comes first, the peptide text is derived from it.
Columns and labels:
S. enterica [1] = assay type: cell-based, Salmonella enterica (ATCC, 14028); conditions: micro-broth dilution, 3 h peptide treatment then MHB 18 h, 37 °C, OD 600 nm
From the text: (§1) The microbial strains used in this study were Bacillus subtilis (ATCC, 11774), Candida albicans (TIMM, 1768), Enterococcus faecalis (ATCC, 33186), Escherichia coli (ATCC, 11775), Klebsiella pneumoniae (ATCC, 13883), Methicillin-resistant Staphylococcus aureus (ATCC, BAA-41), Pseudomonas aeruginosa (ATCC, 10145), Salmonella enterica (ATCC, 14028), Serratia marcescens (ATCC, 13880), Staphylococcus aureus (ATCC, 25923) and Vibrio parahaemolyticus (ATCC, 17802). All microbial strains were cultivated overnight at 37 °C and 200 rpm, then subcultured and incubated for 3 h under the same incubation conditions to obtain the mid-logarithmic growth phase. The cultivated cells were washed twice with 10 mM Tris–HCl containing 5 mM D-glucose at pH 7.4 and suspended in the same buffer to be used in different assays, as previously described.
(§2) As a conclusive quantitative assessment, broth microtiter assay was used to determine the MIC values of each cryptide against B. subtilis, MRSA, S. enterica, P. aeruginosa, V. parahaemolyticus and C. albicans by following the guidelines of the Clinical and Laboratory Standards Institute (CLSI)[67], with slight modifications. Eighty microliters of 5 × 10^4 CFU/ml of each pathogen were dispensed into a 96-well polypropylene microtiter plate. The wells were then treated with 20 µl of serially diluted cryptides for 3 h at 37 °C. Gentamicin was used for positive controls at 0.2 mg/ml while an equivalent volume of acidified water was used for negative controls. The plates were then topped up with a final concentration of 1 × Mueller Hinton Broth (MHB) and incubated for 18 h under the same incubation conditions. MIC was detected as the lowest concentration of each cryptide that prevents the optically detectable microbial growth at OD = 600 nm.

C. albicans [2] = assay type: cell-based, Candida albicans (TIMM, 1768); conditions: micro-broth dilution, 3 h peptide treatment then MHB 18 h, 37 °C, OD 600 nm
From the text: as §1, §2

MRSA [3] = assay type: cell-based, Methicillin-resistant Staphylococcus aureus (ATCC, BAA-41); conditions: micro-broth dilution, 3 h peptide treatment then MHB 18 h, 37 °C, OD 600 nm
From the text: as §1, §2

[4] = assay type: cell-based; conditions: 24 h, serum-free medium, MTT, 37 °C, 5% CO2; mean ± SD; read-out: IC50 (µM) A459
Procedure: (§3) The used mammalian cell lines in our study were colorectal adenocarcinoma (Caco2, ATCC-HTB-37), colorectal carcinoma (HCT 116, ATCC-CCL-247), lung carcinoma (A549, ATCC- CCL-185), cervical cancer cells (HeLa, ATCC-CCL-2), neuroblastoma (SH-SY5Y, ATCC- CRL-2266), rhabdomyosarcoma (RD, ATCC- CCL-136) and human embryonic kidney cells (HEK 293, ATCC- CRL-1573). All the cells were maintained into Dulbecco’s Modified Eagle’s Medium (DMEM) supplemented with 10% heat-inactivated fetal bovine serum, 2 mM L-Glutamine, 100 U/ml penicillin–streptomycin (Pen/Strep) at 37 °C in 5% CO2 humidified incubator.
(§4) First, the cytotoxic effect of 24 h serum deprivation on all the selected cell lines was evaluated by MTT assay, following standard protocols. Briefly, cells were seeded and maintained at 37 °C and 5% CO2 in 24-well plates until they reached 75–80% confluency (zero time). Following washing twice with 1X PBS, cells were incubated in a serum-free medium for 24 h, under the same incubation conditions. The cell viability percentages were calculated and compared to zero time as 100% viability to nullify any possible effects of serum deprivation. Thence, the cell viability percentage of each cell line in response to 24 h treatment with different concentrations of each cryptide in serum-free medium was calculated. […] All the measured cell viability percentages were normalised against the corresponding negative controls.

RD = assay type: cell-based; conditions: 24 h, serum-free medium, MTT, 37 °C, 5% CO2; mean ± SD
Procedure: as §3, §4

SH-SY5Y = assay type: cell-based; conditions: 24 h, serum-free medium, MTT, 37 °C, 5% CO2; mean ± SD
Procedure: as §3, §4

B. subtilis [5] = assay type: cell-based, Bacillus subtilis (ATCC, 11774); conditions: micro-broth dilution, 3 h peptide treatment then MHB 18 h, 37 °C, OD 600 nm
From the text: as §1, §2

MRSA [6] = assay type: cell-based, Methicillin-resistant Staphylococcus aureus (ATCC, BAA-41); conditions: 20 µl of wells without growth on agar, 18 h, 37 °C
C. albicans [7] = assay type: cell-based, Candida albicans (TIMM, 1768); conditions: 20 µl of wells without growth on Sabouraud 4% Dextrose Agar, 18 h, 37 °C
B. subtilis [8] = assay type: cell-based, Bacillus subtilis (ATCC, 11774); conditions: 20 µl of wells without growth on agar, 18 h, 37 °C
HEK-293 = assay: MTT cytotoxicity on normal cells; assay type: cell-based, human; conditions: 25 µM (highest tested concentration), 24 h, serum-free medium
Procedure: as §3, §4

[9] = system: S. enterica mature biofilm; assay: Antibiofilm microtiter plate assay (mature biofilm, crystal violet); assay type: cell-based, Salmonella enterica (ATCC, 14028); conditions: tested 12.5-200 µM
Procedure: The antibiofilm activities of the selected cryptides against S. enterica and MRSA mature biofilms were examined by microtiter plate assay as previously described, with slight modification. During the mid-logarithmic phase, S. enterica and MRSA were suspended at the density of 1.7 × 10^8 CFU/ml in MHB. Then 100 µl of each bacterial suspension was dispensed into a vinyl 96 U-shaped-well plate and incubated overnight at 37 °C. The mature biofilms were washed with 10 mM Tris–HCl containing 5 mM D-glucose at pH 7.4 and treated for 8 h with 100 µl of two-fold serially diluted cryptides, under the same incubation conditions. A sterile MHB medium was used as the positive control while an equivalent volume of acidified water was used to treat the negative controls. The treated biofilms were washed twice with the same washing buffer and stained with 0.1% crystal violet for 15 min followed by rinsing with sterile distilled water twice and then dried for 30 min at 37 °C. The stain was dissolved with 33% acetic acid and transferred to an optically clear 96-well flat bottom plate which was then measured at 600 nm.
Table S.4 Antibiofilm activities of the selected Cryptides against S. enterica and MRSA. Microbial cells were suspended at 1.7 X 10^8 CFU/ml density, during the mid-logarithmic phase in MHB. Then, 96 U-shaped -well plates were inoculated with 100 µl of microbial suspension and incubated for 48 h at 37 °C. The formed biofilms were washed with 10 mM Tris-HCl and treated with 100 µl of different concentrations of each peptide for 24 h. The treated biomasses were washed and fixed with methanol for 15 min at -20 °C before staining with 0.1 % crystal violet. The stained biofilms were dissolved in 100 µl of 33 % acetic acid and the quantities of crystal violet stains were determined by measuring absorbance at 600 nm as an indicator of the remaining biomass after treatment. Untreated cells were used as negative control [indicating 100 % biofilm integrity] while the sterile medium was used as a positive control [indicating 0 % biofilm integrity].
S. enterica MRSA S. enterica MRSA S. enterica MRSA S. enterica MRSA S. enterica MRSA

P. aeruginosa [10] = assay type: cell-based, Pseudomonas aeruginosa (ATCC, 10145); conditions: micro-broth dilution, 3 h peptide treatment then MHB 18 h, 37 °C, OD 600 nm
From the text: as §1, §2

P. aeruginosa [11] = assay type: cell-based, Pseudomonas aeruginosa (ATCC, 10145); conditions: 20 µl of wells without growth on agar, 18 h, 37 °C
S. enterica [12] = assay type: cell-based, Salmonella enterica (ATCC, 14028); conditions: 20 µl of wells without growth on agar, 18 h, 37 °C
Caco-2 = assay type: cell-based, human; conditions: 24 h, serum-free medium, MTT, 37 °C, 5% CO2; mean ± SD
Procedure: as §3, §4

HeLa = assay type: cell-based, human; conditions: 24 h, serum-free medium, MTT, 37 °C, 5% CO2; mean ± SD
Procedure: as §3, §4

[13] = system: the different tested pathogens; assay type: cell-based; conditions: span over tested pathogens, undetected values disregarded
From the text: as §1, §2

human RBCs = assay: Hemolytic assay; assay type: cell-based; conditions: 2% RBCs in PBS, 2 h, 37 °C, supernatant at 450 nm, 0.1% TritonX-100 = maximum; highest tested concentration 100 µM
Procedure: All methods were carried out in accordance with the Declaration of Helsinki, and the Research Ethics Committee approved all experimental protocols at Sunway University (approval no. PGSUREC2020/005). A human blood sample was collected from a healthy person for this assay upon obtaining informed consent. The fresh blood sample was centrifuged at 3700 g for 5 min at RT. The supernatant (serum) was removed and red blood cells (RBCs) were washed three times with 1X PBS and diluted to a final concentration of 2% (PBS—137 mM NaCl, 2.7 mM KCl, 10 mM Na2HPO4, 1.76 mM KH2PO4). Cells were stored at 4 °C, and used within 5 h.
The hemolytic activities of the identified cryptides were evaluated as previously described. The prepared RBCs were treated with different peptide concentrations for 2 h at 37 °C. The treated RBCs were centrifuged, under the same centrifugation conditions, and the supernatants were transferred to a 96-well plate and measured at 450 nm.

HCT 116 = assay type: cell-based, human; conditions: 24 h, serum-free medium, MTT, 37 °C, 5% CO2; mean ± SD
Procedure: as §3, §4

SMILES | MIC (µM) S. enterica (S. enterica [1]) [µM] | MIC (µM) C. albicans (C. albicans [2]) [µM] | MIC (µM) MRSA (MRSA [3]) [µM] | IC50 [4] [µM] | IC50 (RD) [µM] | IC50 (SH-SY5Y) [µM] | MIC (µM) B. subtilis (B. subtilis [5]) [µM] | MBC (µM) MRSA (MRSA [6]) [µM] | MFC (µM) C. albicans (C. albicans [7]) [µM] | MBC (µM) B. subtilis (B. subtilis [8]) [µM] | Cell death of HEK-293 (HEK-293) | Minimal biofilm eradication concentration (MBEC) S. enterica [9] [µM] | MIC (µM) P. aeruginosa (P. aeruginosa [10]) [µM] | MBC (µM) P. aeruginosa (P. aeruginosa [11]) [µM] | MBC (µM) S. enterica (S. enterica [12]) [µM] | IC50 (Caco-2) [µM] | IC50 (HeLa) [µM] | further results
CC(C)[C@H](NC(=O)[C@H](CO)NC(=O)[C@H](Cc1ccccc1)NC(=O)[C@H](CC(N)=O)NC(=O)[C@H](CS)NC(=O)[C@H](Cc1ccc(O)cc1)NC(=O)[C@H](Cc1c[nH]cn1)NC(=O)CN)C(=O)N[C@H](C(=O)N1CCC[C@H]1C(=O)N[C@@H](CCCCN)C(=O)N[C@@H](Cc1ccccc1)C(=O)N[C@@H](CCCCN)C(=O)N[C@@H](CCCNC(=N)N)C(=O)N[C@@H](Cc1c[nH]c2ccccc12)C(=O)O)[C@@H](C)O [AD8] (H-GHYCNFSVTPKFKRW-OH) | 0.78 (≈ 1.46 µg/mL) | 6.25 (≈ 11.7 µg/mL) | 3.12 (≈ 5.83 µg/mL) | 7.3 ± 0.5 | 27.2 ± 0.4 | 23.3 ± 0.7 | 0.78 (≈ 1.46 µg/mL) | 12.5 (≈ 23.4 µg/mL) | 6.25 (≈ 11.7 µg/mL) | 0.78 (≈ 1.46 µg/mL) | less than 10% | 200 | 25 (≈ 46.8 µg/mL) | 50 (≈ 93.5 µg/mL) | 0.78 (≈ 1.46 µg/mL) | 4.4 ± 0.5 | 42.6 ± 0.3 | MBC values, range against the different tested pathogens [13]: 0.78 ~ 50 µM; MIC values, range against the different tested pathogens [13]: 0.78 ~ 25 µM
CC(C)C[C@H](NC(=O)[C@H](C)NC(=O)[C@H](Cc1ccccc1)NC(=O)[C@@H](N)Cc1ccccc1)C(=O)N[C@@H](CCC(N)=O)C(=O)N[C@@H](CS)C(=O)N[C@@H](C)C(=O)N[C@@H](C)C(=O)N[C@@H](CCCCN)C(=O)N[C@H](C(=O)N[C@@H](CCCNC(=N)N)C(=O)N[C@H](C(=O)N[C@@H](CCCNC(=N)N)C(=O)N[C@@H](CCCNC(=N)N)C(=O)N[C@H](C(=O)O)C(C)C)[C@@H](C)O)[C@@H](C)O [AD12] (H-FFALQCAAKTRTRRV-OH) | 0.78 (≈ 1.38 µg/mL) | 12.5 (≈ 22.1 µg/mL) | 6.25 (≈ 11.1 µg/mL) | 9.4 ± 1 | 159 |  | 0.78 (≈ 1.38 µg/mL) | 25 (≈ 44.2 µg/mL) | 12.5 (≈ 22.1 µg/mL) | 0.78 (≈ 1.38 µg/mL) | less than 10% | 200 | 12.5 (≈ 22.1 µg/mL) | 25 (≈ 44.2 µg/mL) | 0.78 (≈ 1.38 µg/mL) | 4.35 | 8.5 ± 0.5 | 
N.N.[Cl][Pt][Cl] [Cisplatin, reference compound] |  |  |  | 15.3 ± 0.6 | 74 ± 1.2 | 54.4 ± 0.8 |  |  |  |  |  |  |  |  |  |  | 63.6 ± 0.4 | Hemolysis of human RBCs at 100 µM (human RBCs): less than 10%; IC50 (µM) HCT 116 (HCT 116): resistant

Reference: article PMC10482825 (Scientific Reports, 2023)
